Our source for the IC50 values is patent US20090311217A1, “3-SUBSTITUTED-1H-INDOLE COMPOUNDS, THEIR USE AS MTOR KINASE AND PI3 KINASE INHIBITORS, AND THEIR SYNTHESES” (priority 2008, published 2009).

Holding throughout (format): biochemical
The target in one assay is PI3K-gamma (Homo sapiens, UniProt P48736). The experiment in a line: PI3K-gamma fluorescence polarization assay. The settings on record: PI3Kγ Avg. IC50. In outline: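 Enzyme 5 ng; substrate diC8-PI(4,5)P2 2.5 μM; ATP 25 μM; 5 mM HEPES pH 7, 2.5 mM MgCl2; DMSO ≤2%; 1 h, 25° C. Quench 10 mM EDTA. Detect with GRP1 PH domain 100 nM + TMR-IP4 probe 5 nM by polarization.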
Sequence of PI3K-gamma (P48736 whole entry, species assumed, the tested form may be a part): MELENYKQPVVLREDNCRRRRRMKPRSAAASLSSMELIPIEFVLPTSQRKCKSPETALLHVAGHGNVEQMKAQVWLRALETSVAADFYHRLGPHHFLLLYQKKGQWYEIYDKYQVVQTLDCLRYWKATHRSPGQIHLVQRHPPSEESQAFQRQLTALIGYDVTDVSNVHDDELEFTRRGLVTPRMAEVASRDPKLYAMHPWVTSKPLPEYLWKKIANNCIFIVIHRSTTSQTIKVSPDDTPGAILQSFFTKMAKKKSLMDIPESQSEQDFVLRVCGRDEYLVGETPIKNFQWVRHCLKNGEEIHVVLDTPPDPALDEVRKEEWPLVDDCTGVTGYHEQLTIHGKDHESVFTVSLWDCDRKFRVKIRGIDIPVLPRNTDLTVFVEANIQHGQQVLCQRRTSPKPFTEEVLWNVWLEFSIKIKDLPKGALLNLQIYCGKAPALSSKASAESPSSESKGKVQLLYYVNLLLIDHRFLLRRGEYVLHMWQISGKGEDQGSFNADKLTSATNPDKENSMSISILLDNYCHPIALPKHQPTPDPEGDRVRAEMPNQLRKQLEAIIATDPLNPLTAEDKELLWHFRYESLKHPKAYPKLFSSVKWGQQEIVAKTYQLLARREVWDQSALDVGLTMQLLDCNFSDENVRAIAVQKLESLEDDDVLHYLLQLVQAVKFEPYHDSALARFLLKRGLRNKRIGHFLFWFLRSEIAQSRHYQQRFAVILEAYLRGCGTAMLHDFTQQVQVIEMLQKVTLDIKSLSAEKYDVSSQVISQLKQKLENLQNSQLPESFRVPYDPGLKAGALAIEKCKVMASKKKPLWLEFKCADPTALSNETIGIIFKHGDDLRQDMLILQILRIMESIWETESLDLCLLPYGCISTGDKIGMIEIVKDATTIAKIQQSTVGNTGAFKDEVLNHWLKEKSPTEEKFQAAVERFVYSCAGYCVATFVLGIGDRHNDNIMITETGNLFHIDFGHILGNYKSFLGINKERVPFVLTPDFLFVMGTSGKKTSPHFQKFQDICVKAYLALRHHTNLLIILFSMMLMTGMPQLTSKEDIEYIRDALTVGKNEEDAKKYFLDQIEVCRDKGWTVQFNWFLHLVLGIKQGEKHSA
For orientation: Polarisation of emitted light reports the rotation of a fluorescent probe.

The next assay addresses T1, human TOR (Homo sapiens, UniProt P42345).
T1 construct: FLAG
The experiment in a line: mTOR enzyme assay (DELFIA, His6-S6K substrate). To be noted: read-out: mTOR Kinase Avg. IC50.

A further assay deals with PI3K-alpha (Homo sapiens, UniProt P42336). The assay can be described thus: PI3K-alpha fluorescence polarization assay. To be noted: read-out: PI3Kα Avg. IC50.
Sequence of PI3K-alpha (P42336 whole entry, species assumed): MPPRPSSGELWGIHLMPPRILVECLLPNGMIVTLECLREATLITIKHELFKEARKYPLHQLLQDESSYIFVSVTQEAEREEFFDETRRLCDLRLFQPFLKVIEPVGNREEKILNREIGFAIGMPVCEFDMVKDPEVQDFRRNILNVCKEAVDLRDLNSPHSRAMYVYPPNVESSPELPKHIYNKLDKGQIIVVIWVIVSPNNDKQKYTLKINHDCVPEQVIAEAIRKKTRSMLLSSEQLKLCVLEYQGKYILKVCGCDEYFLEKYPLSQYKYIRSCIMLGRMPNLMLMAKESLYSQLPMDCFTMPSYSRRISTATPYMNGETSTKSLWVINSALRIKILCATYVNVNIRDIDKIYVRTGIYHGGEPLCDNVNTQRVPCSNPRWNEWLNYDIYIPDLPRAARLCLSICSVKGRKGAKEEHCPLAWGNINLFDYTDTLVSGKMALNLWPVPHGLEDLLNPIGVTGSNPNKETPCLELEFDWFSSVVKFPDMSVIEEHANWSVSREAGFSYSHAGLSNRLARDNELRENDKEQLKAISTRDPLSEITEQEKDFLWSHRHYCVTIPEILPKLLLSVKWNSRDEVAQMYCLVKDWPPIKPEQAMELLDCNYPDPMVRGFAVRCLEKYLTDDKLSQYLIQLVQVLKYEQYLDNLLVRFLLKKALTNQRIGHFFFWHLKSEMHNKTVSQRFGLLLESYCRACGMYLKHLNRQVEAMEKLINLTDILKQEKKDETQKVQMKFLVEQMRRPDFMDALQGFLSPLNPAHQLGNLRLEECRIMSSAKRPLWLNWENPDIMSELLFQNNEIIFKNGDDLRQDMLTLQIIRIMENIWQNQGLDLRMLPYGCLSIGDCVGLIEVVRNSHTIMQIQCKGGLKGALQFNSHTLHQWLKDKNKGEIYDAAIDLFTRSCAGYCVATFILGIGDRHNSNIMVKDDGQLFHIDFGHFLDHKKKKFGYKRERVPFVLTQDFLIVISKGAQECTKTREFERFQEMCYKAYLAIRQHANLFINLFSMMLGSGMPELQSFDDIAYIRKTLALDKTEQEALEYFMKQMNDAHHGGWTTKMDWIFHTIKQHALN
Sequence of PI3K-alpha (P27986 whole entry partner, species assumed): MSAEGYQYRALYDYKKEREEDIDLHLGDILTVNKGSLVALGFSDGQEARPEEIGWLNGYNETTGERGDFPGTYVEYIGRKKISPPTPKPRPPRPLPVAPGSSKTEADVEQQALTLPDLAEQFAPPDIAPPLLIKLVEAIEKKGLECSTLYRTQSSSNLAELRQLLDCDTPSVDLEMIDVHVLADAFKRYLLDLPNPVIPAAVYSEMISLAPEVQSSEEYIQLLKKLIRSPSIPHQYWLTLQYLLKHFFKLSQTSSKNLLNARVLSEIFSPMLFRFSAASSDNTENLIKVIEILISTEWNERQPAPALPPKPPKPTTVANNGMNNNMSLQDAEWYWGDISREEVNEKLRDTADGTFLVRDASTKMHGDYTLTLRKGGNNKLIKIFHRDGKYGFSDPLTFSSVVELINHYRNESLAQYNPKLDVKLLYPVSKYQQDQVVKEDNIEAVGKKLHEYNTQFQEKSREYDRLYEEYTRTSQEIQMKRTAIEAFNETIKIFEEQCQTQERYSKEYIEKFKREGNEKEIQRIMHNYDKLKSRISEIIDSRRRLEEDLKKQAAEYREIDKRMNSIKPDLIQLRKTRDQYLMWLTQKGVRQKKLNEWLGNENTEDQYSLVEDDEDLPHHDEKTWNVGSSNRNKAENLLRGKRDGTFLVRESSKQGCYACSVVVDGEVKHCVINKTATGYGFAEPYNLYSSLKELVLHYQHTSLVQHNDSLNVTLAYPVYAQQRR

As a reminder, the IC50 is the point on the concentration scale where inhibition reaches its midpoint.

Consider `CCn1c(C)c(/C=C2\Oc3ccc(NC(=O)Nc4ccc(CCCN(C)C)cc4)cc3C2=O)c2cc(OC)ccc21` [Compound 671, 1-{4-[3-(dimethylamino)propyl]phenyl}-3-{(2Z)-2-[(1-ethyl-5-methoxy-2-methyl-1H-indol-3-yl)methylidene]-3-oxo-2,3-dihydro-1-benzofuran-5-yl}urea], for which the IC50 on PI3K-gamma worked out at 25 nM; on human TOR it was 220 nM; on PI3K-alpha, 4 nM.
For `CNCCn1c(-c2c(C)nn(C)c2C)c(/C=C2\Oc3ccc(NC(=O)NC)cc3C2=O)c2cc(OC)ccc21` [Compound 672, 1-[(2Z)-2-({5-methoxy-1-[2-(methylamino)ethyl]-2-(1,3,5-trimethyl-1H-pyrazol-4-yl)-1H-indol-3-yl}methylidene)-3-oxo-2,3-dihydro-1-benzofuran-5-yl]-3-methylurea], the 50% inhibitory concentration (IC50) at PI3K-gamma was 180 nM; on human TOR, 27 nM; at PI3K-alpha it was 10.5 nM.
`CNC(=O)Nc1ccc2c(c1)C(=O)/C(=C/c1c(-c3c(C)nn(C)c3C)n(CCN(C)C)c3ccc(OC)cc13)O2` [Compound 673, 1-[(2Z)-2-({1-[2-(dimethylamino)ethyl]-5-methoxy-2-(1,3,5-trimethyl-1H-pyrazol-4-yl)-1H-indol-3-yl}methylidene)-3-oxo-2,3-dihydro-1-benzofuran-5-yl]-3-methylurea]: the IC50 is 61.5 nM at PI3K-gamma, 60 nM on human TOR and 12.5 nM on PI3K-alpha.
`COc1ccc2c(c1)c(/C=C1\Oc3ccc(NC(=O)Nc4ccc(OCCCCN(C)C)cc4)cc3C1=O)c(C)n2CCN1CCN(C)CC1` [Compound 674, 1-{4-[4-(dimethylamino)butoxy]phenyl}-3-[(2Z)-2-({5-methoxy-2-methyl-1-[2-(4-methylpiperazin-1-yl)ethyl]-1H-indol-3-yl}methylidene)-3-oxo-2,3-dihydro-1-benzofuran-5-yl]urea]: the results for the IC50 at PI3K-gamma, at human TOR and on PI3K-alpha were 686 nM, 350 nM and 10 nM, respectively.
In the case of `CCn1c(C)c(/C=C2\Oc3ccc(NC(=O)Nc4ccc(N(C)CCCCN(C)C)cc4)cc3C2=O)c2cc(OC)ccc21` [Compound 675, 1-(4-{[4-(dimethylamino)butyl](methyl)amino}phenyl)-3-{(2Z)-2-[(1-ethyl-5-methoxy-2-methyl-1H-indol-3-yl)methylidene]-3-oxo-2,3-dihydro-1-benzofuran-5-yl}urea], the figures for the IC50 at PI3K-gamma, at human TOR and at PI3K-alpha were 40 nM, 370 nM and 9 nM, respectively.
For the compound `CCn1c(C)c(/C=C2\Oc3ccc(NC(=O)Nc4ccc(NC(=O)CCN(C)C)cc4)cc3C2=O)c2cc(OC)ccc21` [Compound 676, N-{4-[({(2Z)-2-[(1-ethyl-5-methoxy-2-methyl-1H-indol-3-yl)methylidene]-3-oxo-2,3-dihydro-1-benzofuran-5-yl}carbamoyl)amino]phenyl}-N3,N3-dimethyl-b-alaninamide], the IC50 turned out to be 3.25 nM at PI3K-gamma, 7 nM on human TOR and 0.3 nM at PI3K-alpha.
With `CCn1c(C)c(/C=C2\Oc3ccc(NC(=O)Nc4ccc(S(=O)(=O)N5CCN(C)CC5)cc4)cc3C2=O)c2cc(OC)ccc21` [Compound 677, 1-{(2Z)-2-[(1-ethyl-5-methoxy-2-methyl-1H-indol-3-yl)methylidene]-3-oxo-2,3-dihydro-1-benzofuran-5-yl}-3-{4-[(4-methylpiperazin-1-yl)sulfonyl]phenyl}urea], the IC50 against PI3K-gamma is 144 nM; on human TOR it was 595 nM; at PI3K-alpha, 19 nM.
With `CCn1c(C)c(/C=C2\Oc3ccc(NC(=O)Nc4ccc(NCCN(C)C)cc4)cc3C2=O)c2cc(OC)ccc21` [Compound 678, 1-(4-{[2-(dimethylamino)ethyl]amino}phenyl)-3-{(2Z)-2-[(1-ethyl-5-methoxy-2-methyl-1H-indol-3-yl)methylidene]-3-oxo-2,3-dihydro-1-benzofuran-5-yl}urea], the IC50 was found to be 14.5 nM against PI3K-gamma, 130 nM on human TOR and 3 nM on PI3K-alpha.
With `CCn1c(C)c(/C=C2\Oc3ccc(NC(=O)Nc4ccc(S(=O)(=O)N(C)CCN(C)C)cc4)cc3C2=O)c2cc(OC)ccc21` [Compound 679, N-[2-(dimethylamino)ethyl]-4-[({(2Z)-2-[(1-ethyl-5-methoxy-2-methyl-1H-indol-3-yl)methylidene]-3-oxo-2,3-dihydro-1-benzofuran-5-yl}carbamoyl)amino]-N-methylbenzenesulfonamide], the results for the IC50 at PI3K-gamma, at human TOR and at PI3K-alpha were 67.5 nM, 370 nM and 8 nM, respectively.
Consider `CNC(=O)Nc1ccc2c(c1)C(=O)/C(=C/c1c(-c3c(C)nn(C)c3C)[nH]c3ccc(OCCOC)cc13)O2` [Compound 680, 1-[(2Z)-2-{[5-(2-methoxyethoxy)-2-(1,3,5-trimethyl-1H-pyrazol-4-yl)-1H-indol-3-yl]methylidene}-3-oxo-2,3-dihydro-1-benzofuran-5-yl]-3-methylurea], for which the IC50 on PI3K-gamma worked out at 6030 nM; on human TOR it was 535 nM; at PI3K-alpha it was 1920 nM.
For the compound `COc1ccc2[nH]c(-c3c(C)nn(C)c3C)c(/C=C3\Oc4ccc(NC(=O)Nc5ccc(C(=O)N(C)CCN(C)C)cc5)cc4C3=O)c2c1` [Compound 682, N-[2-(dimethylamino)ethyl]-4-({[(2Z)-2-{[5-methoxy-2-(1,3,5-trimethyl-1H-pyrazol-4-yl)-1H-indol-3-yl]methylidene}-3-oxo-2,3-dihydro-1-benzofuran-5-yl]carbamoyl}amino)-N-methylbenzamide], the IC50 was 1.98 nM against PI3K-gamma, 1 nM at human TOR and 0.3 nM on PI3K-alpha.
On to `CCn1c(C)c(/C=C2\Oc3ccc(NC(=O)Nc4ccc(OCCCNC)cc4)cc3C2=O)c2cc(OC)ccc21` [Compound 683, 1-{(2Z)-2-[(1-ethyl-5-methoxy-2-methyl-1H-indol-3-yl)methylidene]-3-oxo-2,3-dihydro-1-benzofuran-5-yl}-3-{4-[3-(methylamino)propoxy]phenyl}urea], for which the figures for the IC50 against PI3K-gamma, on human TOR and at PI3K-alpha were 11 nM, 92 nM and 1.65 nM, respectively.
On to `COc1ccc2c(c1)c(/C=C1\Oc3ccc(NC(=O)Nc4ccc(NCCN(C)C)cc4)cc3C1=O)c(C)n2CCN1CCN(C)CC1` [Compound 684, 1-(4-{[2-(dimethylamino)ethyl]amino}phenyl)-3-[(2Z)-2-({5-methoxy-2-methyl-1-[2-(4-methylpiperazin-1-yl)ethyl]-1H-indol-3-yl}methylidene)-3-oxo-2,3-dihydro-1-benzofuran-5-yl]urea], for which the IC50 worked out at 1720 nM at PI3K-gamma, 19 nM at human TOR and 7 nM on PI3K-alpha.
Consider `COc1ccc2c(c1)c(/C=C1\Oc3ccc(NC(=O)Nc4ccc(NC(=O)CCN(C)C)cc4)cc3C1=O)c(C)n2CCN1CCN(C)CC1` [Compound 685, N-[4-({[(2Z)-2-({5-methoxy-2-methyl-1-[2-(4-methylpiperazin-1-yl)ethyl]-1H-indol-3-yl}methylidene)-3-oxo-2,3-dihydro-1-benzofuran-5-yl]carbamoyl}amino)phenyl]-N3,N3-dimethyl-b-alaninamide], for which the IC50 at PI3K-gamma is 115 nM; at human TOR it was 16 nM; on PI3K-alpha it was 0.8 nM.
